According to patent US20080234258A1, “Dihydroxyanthraquinones and Their Use” (priority 2005, published 2008):

Columns and labels:
[1] = tested on: intra-plantar carrageenan induced paw oedema; assay: Carrageenan Paw Assay; format: in vivo; conditions: 0.3 to 30 mg/kg oral gavage, male Wistar rats, paw measured 1-5 hours after carrageenan
Protocol: Fasted (18 hour) male Wistar rats (105-130 g) were weighed and a basal mercury plethysmometer reading was taken of the right hind paw by submerging the paw in the mercury up to the tibiotarsal joint. Subsequently, vehicles, reference items and test articles were administered by oral gavage (10 ml/kg). 30 minutes after treatment, 0.1 ml of 2% carrageenan in 0.9% saline was injected into the subplanatar area of the right hind paw. The right paw was measured again with the plethysmometer, at 1, 2, 3, 4 and 5 hours after carrageenan administration.

[2] = tested on: LPS-induced TNFα secretion; assay: LPS Mouse Assay, serum TNFα by ELISA; format: in vivo; conditions: Balb C ByJ mice, 1 mg/kg LPS i.p., serum 2 hours after LPS
Protocol: (§1) 7 week old Balb C ByJ mice (24-28 g) were administered, either by oral (10 ml/kg) administration, with vehicle or test article. 30 minutes later, these animals were challenged with an intraperitoneal injection of 1 mg/kg LPS. 2 hours after LPS challenge, blood samples were collected under light isoflurane anaesthesia into normal tubes by retro-orbital puncture. Samples were allowed to clot at room temperature and then spun at 6000 g for 3 min at 4° C. Serum was stored at −20° C. until use. Serum TNFα and IL-10 levels were analysed in duplicate by ELISA technique.

[3] = tested on: IL-1β; assay: LPS Mouse Assay, IL-1β levels; format: in vivo; conditions: 3, 10 and 30 mg/kg oral, Balb C ByJ mice, 1 mg/kg LPS i.p., serum 2 hours after LPS
Protocol: as §1

[4] = tested on: pro-MMPs-1, -3, -9 and -13; conditions: rabbit articular chondrocytes; cited from earlier work
[5] = tested on: TIMP-1; conditions: rabbit articular chondrocytes; cited from earlier work
[6] = tested on: cytokine gene expression; conditions: model of lupus nephritis; cited from earlier work
[7] = tested on: IL-1β and TNFα; conditions: human osteoarthritic synovium and chondrocytes; cited from earlier work

| SMILES | effect in carrageenan induced paw oedema model of inflammation [1] | effect on LPS-induced TNFα secretion ([2]; 30 mg/kg oral) | production of pro-matrix metalloproteinases (pro-MMPs-1, -3, -9 and -13) [4] | production of tissue inhibitor of metalloproteinases (TIMP-1) [5] | also measured |
| --- | --- | --- | --- | --- | --- |
| O=C1c2cccc(OC(=O)C3CCOCC3)c2C(=O)c2c(OC(=O)C3CCOCC3)cc(C(=O)N3CCOCC3)cc21 [Example 1, 1,8-bis(tetrahydropyran-4-carbonyloxy)-3-(morpholine-4-carbonyl)-9,10-dioxo-9,10-dihydroanthracene] | dose-dependant effect | produced an effect | – | – | IL-1β levels from LPS stimulus [3]: reduced IL-1β levels |
| CCNC(=O)c1cc(OC(=O)C2CCOCC2)c2c(c1)C(=O)c1cccc(OC(=O)C3CCOCC3)c1C2=O [Example 2, 1,8-bis(tetrahydropyran-4-carbonyloxy)-3-ethylcarbamoyl-9,10-dioxo-9,10-dihydroanthracene] | – | – | – | – | effect on LPS-induced TNFα secretion ([2]; 10 mg/kg oral): inhibited |
| COCCOC(=O)c1cc(OC(=O)C2CCOCC2)c2c(c1)C(=O)c1cccc(OC(=O)C3CCOCC3)c1C2=O [Example 3, 4,5-bis(tetrahydropyran-4-carbonyloxy)-9,10-dioxo-9,10-dihydroanthracene-2-carboxylic acid, 2-methoxyethyl ester] | – | produced an effect | – | – | – |
| CCOC(=O)c1cc(OC(=O)C2CCOCC2)c2c(c1)C(=O)c1cccc(OC(=O)C3CCOCC3)c1C2=O [Example 4, 4,5-bis(tetrahydropyran-4-carbonyloxy)-9,10-dioxo-9,10-dihydroanthracene-2-carboxylic acid, ethyl ester] | dose-dependant effect | – | – | – | – |
| CC(=O)Oc1cccc2c1C(=O)c1c(OC(C)=O)cc(C(=O)O)cc1C2=O [diacerein] | – | – | down-regulate | upregulating | – |
| O=C(O)c1cc(O)c2c(c1)C(=O)c1cccc(O)c1C2=O [rhein, 1,8-dihydroxyanthraquinone-3-carboxylic acid] | – | – | down-regulate | upregulating | cytokine gene expression [6]: inhibit; production of pro-inflammatory cytokines (IL-1β and TNFα) [7]: inhibit |
